test system: MAPT 3R mRNA; assay: RT-qPCR Assay to Quantify MAPT 3R mRNA in Cells; format: cell-based; conditions: cells incubated with compound 24 h; 7-point concentration curve; MAPT minigene 3R RT-qPCR with GAPDH assay; EC2X interpolated from dose response curve
Procedure: RT-qPCR Assay to Quantify MAPT 3R mRNA in Cells
Test compounds were serially diluted 3.16-fold in 100% DMSO to generate a 7-point concentration curve. Aliquots of 0.5 μL of diluted compounds were transferred to a 96-well flat bottom plate by a liquid handler. An aliquot of 0.5 μL DMSO was also transferred to separate wells and used as controls. Duplicate samples were set up for each compound concentration and for the DMSO control.
Cells were thawed and incubated in cell culture media (DMEM, 10% FBS, and 1% antibiotic cocktail) for 72 h. Cells were trypsinized, counted, and re-suspended to a concentration of 200,000 cells/mL in cell culture media. A 100 μL aliquot of the cell suspensions were plated at 20,000 cells per well in the compound containing 96 well microtiter plate and incubated for in a cell culture incubator (37° C., 5% CO2, 100% relative humidity).
After 24 h, media was aspirated from the cells and 20 μL of the RCL2 lysis buffer (10 mM Tris-HCL pH 7.4, 150 mM NaCl, 0.33% IGEPAL® CA-630) was added to each well and incubated at RT for 1 min. Chilled nuclease free water (140 μL per well) was added and the plates were immediately transferred on ice. After 1 min on ice, plates were frozen at −80° C. overnight.
Preparation of RT-qPCR Reaction Mixture:
An aliquot of 4 μL/well of the cell lysates was transferred using the liquid handler to the Armadillo 384-Well PCR plate containing 6 μL/well of the RT-qPCR reaction mixture that was prepared as detailed above. The plates were then sealed with MicroAmp™ Optical Adhesive Film followed by spinning down for 1 min and placed in the CFX384 thermocycler (BioRad).
The RT-qPCR was carried out at the following temperatures for the indicated time: • Step 1: 48° C. (30 min) • Step 2: 95° C. (10 min) • Step 3: 95° C. (15 sec) • Step 4: 60° C. (1 min); then, repeated Steps 3 and 4 for a total of 40 cycles.
The percent exon 4 skipping was calculated for each dose of compound treatment using Equations 1 and 2.
Data were fit to a dose response curve and the EC2X was interpolated using XLfit® statistical and curve fitting package.
An EC2X value between >1000 nM and ≤1500 nM is indicated by two stars (**). An EC2X value between >500 nM and ≤1000 nM is indicated by three stars (***). An EC2X value between >50 nM and ≤500 nM is indicated by four stars (****). An EC2X value ≤50 nM is indicated by five stars (*****).

SMILES | EC (2-fold increase) [µM]
C[C@H](N)Cc1sc2c(NCc3ccco3)cc(Cl)nc2c1C1CC1 [Cpd 51, 2-[(2S)-2-aminopropyl]-5-chloro-3-cyclopropyl-N-[(furan-2-yl)methyl]thieno[3,2-b]pyridin-7-amine] | ≤ 0.05
N[C@H](Cc1sc2c(NCc3ccco3)cc(Cl)nc2c1Cl)C(=O)Nc1ccccc1 [Cpd 122, 3-(3,5-dichloro-7-{[(furan-2-yl)methyl]amino}thieno[3,2-b]pyridin-2-yl)-N-phenyl-D-alaninamide] | 0.05 to 0.5
COC[C@H](N)Cc1sc2c(NCc3ccco3)cc(Cl)nc2c1Br [Cpd 44, 2-[(2R)-2-amino-3-methoxypropyl]-3-bromo-5-chloro-N-[(furan-2-yl)methyl]thieno[3,2-b]pyridin-7-amine] | ≤ 0.05
N[C@@H](CO)Cc1cc2nc(Cl)cc(NCc3ccco3)c2s1 [Cpd 17, (2R)-2-amino-3-(5-chloro-7-{[(furan-2-yl)methyl]amino}thieno[3,2-b]pyridin-2-yl)propan-1-ol] | 1 to 1.5
N[C@H](Cc1sc2c(NCc3cccs3)cc(Cl)nc2c1Br)CC(F)F [Cpd 107, 2-[(2S)-2-amino-4,4-difluorobutyl]-3-bromo-5-chloro-N-[(thiophen-2-yl)methyl]thieno[3,2-b]pyridin-7-amine] | 0.05 to 0.5
Cc1c(C[C@@H](N)CS(C)(=O)=O)sc2c(NCc3ccco3)cc(Cl)nc12 [Cpd 108, 2-[(2R)-2-amino-3-(methanesulfonyl)propyl]-5-chloro-N-[(furan-2-yl)methyl]-3-methylthieno[3,2-b]pyridin-7-amine] | 0.05 to 0.5
COC[C@H](N)Cc1sc2c(NCc3ccco3)cc(Cl)nc2c1Cl [Cpd 40, 2-[(2R)-2-amino-3-methoxypropyl]-3,5-dichloro-N-[(furan-2-yl)methyl]thieno[3,2-b]pyridin-7-amine] | ≤ 0.05
CS(=O)(=O)C[C@H](N)Cc1sc2c(NCc3ccco3)cc(Cl)nc2c1Cl [Cpd 113, 2-[(2R)-2-amino-3-(methanesulfonyl)propyl]-3,5-dichloro-N-[(furan-2-yl)methyl]thieno[3,2-b]pyridin-7-amine] | 0.05 to 0.5
Cc1c(C[C@@H](N)C(=O)N(C)C)sc2c(NCc3ccco3)cc(Cl)nc12 [Cpd 116, 3-(5-chloro-7-{[(furan-2-yl)methyl]amino}-3-methylthieno[3,2-b]pyridin-2-yl)-N,N-dimethyl-D-alaninamide] | 0.05 to 0.5
COC[C@H](N)Cc1sc2c(NCc3ccco3)cc(Cl)nc2c1C [Cpd 45, 2-[(2R)-2-amino-3-methoxypropyl]-5-chloro-N-[(furan-2-yl)methyl]-3-methylthieno[3,2-b]pyridin-7-amine] | ≤ 0.05
N#CC[C@H](N)Cc1sc2c(NCc3ccco3)cc(Cl)nc2c1Br [Cpd 103, (3S)-3-amino-4-(3-bromo-5-chloro-7-{[(furan-2-yl)methyl]amino}thieno[3,2-b]pyridin-2-yl)butanenitrile] | 0.05 to 0.5
N[C@@H](CCF)Cc1sc2c(NCc3cccs3)cc(Cl)nc2c1Br [Cpd 74, 2-[(2S)-2-amino-4-fluorobutyl]-3-bromo-5-chloro-N-[(thiophen-2-yl)methyl]thieno[3,2-b]pyridin-7-amine] | ≤ 0.05
N[C@H](CF)Cc1sc2c(NCc3cccs3)cc(Cl)nc2c1Br [Cpd 63, 2-[(2S)-2-amino-3-fluoropropyl]-3-bromo-5-chloro-N-[(thiophen-2-yl)methyl]thieno[3,2-b]pyridin-7-amine] | 1 to 1.5
N[C@@H](CO)Cc1sc2c(NCc3ccco3)cc(Cl)nc2c1Br [Cpd 41, (2R)-2-amino-3-(3-bromo-5-chloro-7-{[(furan-2-yl)methyl]amino}thieno[3,2-b]pyridin-2-yl)propan-1-ol] | 0.5 to 1
C[C@H](N)C(F)c1sc2c(NCc3cccs3)cc(Cl)nc2c1Br (stereo partly drawn) [Cpd 158, 2-[(2S)-2-amino-1-fluoropropyl]-3-bromo-5-chloro-N-[(thiophen-2-yl)methyl]thieno[3,2-b]pyridin-7-amine] | ≤ 0.05
